Entries after “also recorded” stand apart in the source; their conditions may differ. Read-outs that look alike come from different tables or passages of the source.
Legend:
[1] = molecular target: T1, ABHD2^L33–E425 (Homo sapiens, UniProt P08910); experiment: ABHD2^L33-E425 fluorometric enzymatic activity assay with 7-HCA substrate; type: biochemical; conditions: for IC50: 10 nM enzyme, 10 µM 7-HCA, read-out: IC50 for ABHD2^L33-425, fluorometric assay using 7-HCA
T1 construct: expression for ABHD2 amino acids L33–E425, in which a predicted transmembrane domain (amino acids 1–32) is removed; His6-FLAG (N); made in house; host or cells: E. coli BL21(DE3)-R3-pRARE2
T1 sequence (P08910 33-425): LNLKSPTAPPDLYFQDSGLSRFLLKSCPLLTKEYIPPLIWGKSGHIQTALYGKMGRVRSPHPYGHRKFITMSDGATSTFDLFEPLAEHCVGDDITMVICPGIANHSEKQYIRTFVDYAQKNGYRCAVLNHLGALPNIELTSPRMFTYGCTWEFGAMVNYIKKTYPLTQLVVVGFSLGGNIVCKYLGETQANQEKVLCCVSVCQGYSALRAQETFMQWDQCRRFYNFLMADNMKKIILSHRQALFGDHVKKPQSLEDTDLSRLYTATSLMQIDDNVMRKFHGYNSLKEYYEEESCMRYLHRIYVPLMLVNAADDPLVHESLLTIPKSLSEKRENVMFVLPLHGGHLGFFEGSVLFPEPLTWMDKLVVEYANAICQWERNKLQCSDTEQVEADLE

[2] = molecular target: T1, ABHD2^L33–E425; experiment: Differential scanning fluorimetry (DSF) with purified ABHD2^L33–E425; type: binding; conditions: for effect on heat-induced denaturation of ABHD2^L33–E425 (DSF binding): 40 µM steroid; for ΔTm shift for ABHD2^L33-425 determined by DSF: purified protein
[3] = system: CatSper; conditions: cited from earlier work
[4] = molecular target: T2, full-length human ABHD2 (ABHD2^FL) (Homo sapiens, UniProt P08910); experiment: ABHD2^FL enzymatic activity assay with 7-HCA substrate; type: biochemical; conditions: for IC50: Supplementary Table S2, read-out: IC50 measured in ABHD2^FL in the 7-HCA Assay
T2 construct: TEV site-eGFP-8xHis (C, cleaved yes); made in house; host or cells: SF9 insect cells (baculovirus)
T2 sequence (P08910 1-425): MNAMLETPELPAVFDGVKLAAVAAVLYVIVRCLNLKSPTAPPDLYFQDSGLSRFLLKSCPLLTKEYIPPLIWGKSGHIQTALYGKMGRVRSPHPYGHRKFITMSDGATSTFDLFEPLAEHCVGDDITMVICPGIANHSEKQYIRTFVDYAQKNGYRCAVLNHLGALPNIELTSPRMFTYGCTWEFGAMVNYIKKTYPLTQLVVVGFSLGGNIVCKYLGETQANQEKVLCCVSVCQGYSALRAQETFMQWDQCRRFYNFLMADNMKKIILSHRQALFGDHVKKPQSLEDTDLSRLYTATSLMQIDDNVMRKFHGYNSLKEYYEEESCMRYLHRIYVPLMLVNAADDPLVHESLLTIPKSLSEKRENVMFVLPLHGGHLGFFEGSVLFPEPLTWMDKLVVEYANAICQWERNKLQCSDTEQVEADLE

[5] = system: human sperm; experiment: Sperm intracellular Ca2+ measurements (Fluo-4); type: cell-based; conditions: for compound-evoked changes in [Ca2+]i: 10 µM compound; for effect on progesterone-induced Ca2+ signal (amplitude and waveform): compounds 10 µM, TS150 60 µM, progesterone 3 µM
Method: Measurements of the changes in sperm intracellular Ca^2+ concentration ([Ca^2+]i) were performed on motile human sperm purified by swim-up. Semen samples were allowed to liquefy for 15–60 min at 37°C, and 0.5–1 ml liquified semen was layered beneath 4 ml human tubal fluid medium (HTF; 97.8 mM NaCl, 4.69 mM KCl, 0.2 mM MgSO4, 0.37 mM KH2PO4, 2.04 mM CaCl2, 2.78 mM glucose, 0.33 mM sodium pyruvate, 21.4 mM lactic acid, 4 mM NaHCO3, and 21 mM HEPES pH 7.35 adjusted with NaOH) in 50 ml conical tubes. Motile sperm were allowed to swim up into the HTF for 60–90 min at 37°C, collected, washed twice (700 × g, 20 min, 37°C), and resuspended in HTF containing 3 mg/ml HSA at a density of 1 × 10^7 sperm/ml. Changes of [Ca^2+]i in motile human sperm were measured as previously described ([Rennhack et al., 2018]), using a fluorescence plate-reader assay (FLUOstar Omega, BMG LABTECH) with 384-well plates. Swim-up-purified sperm were loaded with Fluo4-AM (5 μM, Thermo Fisher Scientific, Waltham, MA, USA) and Pluronic F-127 (0.05% w/v) for 20 min at 37°C. Excess dye was removed by centrifugation at 700 × g for 5 min, supernatant removal, and resuspension to 5 × 10^6 sperm/ml in HTF.
For recordings, wells of a 384-well plate were filled with 50 μl of the dye-loaded sperm suspension. Fluorescence was excited at 480 nm, and emission was recorded at 520 nm using a plate reader (Fluostar Omega, BMG Labtech). After establishing a baseline for at least 60 s, 25 µl test compound solutions were added and the fluorescence response recorded. After 4 min, 7.5 µl progesterone was added to reach a final concentration of 3 µM, and ensuing changes in fluorescence were recorded. For the analysis of compound-evoked Ca^2+ signal, basal fluorescence (F0) was determined prior to compound addition. For the determination of inhibitory effects of compounds on progesterone-evoked Ca^2+ signals, basal fluorescence (F0) was determined before progesterone addition. The CatSper inhibitor TS150 ([Schierling et al., 2023]) was used as a control. Each compound was tested in technical duplicates across ≥3 biological replicates, using sperm from at least two donors, and performed on at least two separate days.
Data analysis and graphical representation were performed with GraphPad Prism software version 10.6.1 (San Diego, CA, USA). Changes in Fluo-4 fluorescence are depicted as ΔF/F0 (%), i.e. the change in fluorescence (ΔF) relative to the mean basal fluorescence (F0) before application of buffer or compounds/ligands, to correct for intra- and inter-experimental variations in basal fluorescence among individual wells or to correct for compound-evoked changes in fluorescence. Signal amplitudes evoked in the presence of compounds were normalized to the maximal signal amplitude evoked by 3 µM progesterone in the absence of the compound (set to 1) to ease comparisons between experiments.

[6] = system: human sperm; experiment: Sperm hyperactivation assay (CASA); type: cell-based; conditions: 10 µM compound, 30 min; for effect on progesterone-induced hyperactivation: 3 µM progesterone
Method: Sperm hyperactivation was assessed in human sperm purified by density gradient centrifugation. Semen samples (n = 7) were allowed to liquefy for 15–30 min at 37°C, and up to 2 ml of liquified semen was layered onto a two-step GM501 gradient system (45%/90%; Gynemed; Sierksdorf, Germany) pre-equilibrated at 37°C. Gradients were centrifuged for 20 min at 400 × g (no break). The 90% pellet was collected, washed in SpermActive medium (Gynemed; composition per manufacturer: NaCl, KCl, MgSO4.7H2O, KH2PO4, 1.77 mM CaCl2.2H2O, D(+)-glucose anhydrous, sodium pyruvate, sodium lactate, EDTA, alanyl-glutamine, essential and non-essential amino acids, 25.71 mM NaHCO3, 15 mM HEPES, 5 g/l human serum albumin, 10 mg/l gentamicin, and phenol red), and incubated for at least 2 h at 37°C, 5% CO2.
For compound testing, sperm suspensions with 7.5 × 10^6 sperm/ml in SpermActive were treated with either DMSO (vehicle) or 10 µM test compound. For basal and induced hyperactivation conditions, DMSO or progesterone (3 µM), respectively, was added. Samples were incubated for 30 min at 37°C, 5% CO2, before motility analysis.
Motility was analyzed using a CASA system (CEROSII^TM Animal Motility, software version 1.16; Hamilton Thorne, Beverly, MA, USA), mounted on an Axiolab 5 microscope (Zeiss, Germany), equipped with a TPi-SX Thermal Plate (Tokai Hit; Shizuoka-ken, Japan) and a JAI CM-040-GE CCD camera (JAI; Tokyo, Japan). Leja slides (20 µm chamber depth; Leja Products B.V., Nieuw-Vennep, The Netherlands) were pre-warmed to 37°C, cleaned with lens paper, and loaded by capillary action with 6 µl sperm suspension; capillary correction was set to 1.3. Sperm tracks were recorded at 37°C using a 10× negative-phase objective, acquiring 60 frames at 60 Hz with 4 ms exposure and gain set to 600. For each sample and condition, 300–500 motile sperm from at least 10 non-overlapping fields were analyzed. Hyperactive sperm were identified using the SORT function with the following Boolean argument: VCL > 150 µm/s and LIN < 50% and ALH > 7 µm. For each sample and condition, the percentage of hyperactive sperm was normalized to the percentage of motile sperm, and the mean of two technical duplicates was reported.
Statistical analysis was performed using GraphPad Prism 10 for Windows (version 10.6.1). Data normality was assessed using Shapiro–Wilk test. Differences between basal and induced hyperactivation were evaluated using a paired t-test, with effective pairing confirmed across all comparisons. P < 0.05 was considered statistically significant.

[7] = 5 µM steroid or triterpenoid, 300 nM 7-HCA
[8] = 7-HCA and RB substrates (Suppl. Fig. S4A,B), weak effects at ≥5 µM

C=C(C)[C@@H]1CC[C@]2(C)CC[C@]3(C)[C@H](CC[C@@H]4[C@@]5(C)CC[C@H](O)C(C)(C)[C@@H]5CC[C@]43C)[C@@H]12 [lupeol]
effect on enzymatic activity of purified ABHD2^L33–E425 [1, 7]: weak inhibitory action
effect on heat-induced denaturation of ABHD2^L33–E425 (DSF binding) ([2]; 30 min pre-incubation): did not affect
progesterone-induced CatSper activation ([3]; ref Brenker et al., 2018, Rehfeld, 2020, Rehfeld and Marcus Pedersen, 2022): do not interfere
progesterone-induced Ca2+ influx and hyperactivation ([3]; ref Mannowetz et al., 2017): inhibitors

C[C@]12CC[C@H]3[C@@H](CCC4=CC(=O)CC[C@@]43C)[C@@H]1CC[C@@H]2O [testosterone]
effect on enzymatic activity of purified ABHD2^FL [4]: did not alter
effect on enzymatic activity of purified ABHD2^L33–E425 [1]: did not alter
effect on heat-induced denaturation of ABHD2^L33–E425 (DSF binding) ([2]; 30 min pre-incubation): did not affect

pregnenolone sulfate
effect on enzymatic activity of purified ABHD2^FL [4]: weak inhibitory action
effect on enzymatic activity of purified ABHD2^L33–E425 [1]: but not on ABHD2^L33–E425
effect on heat-induced denaturation of ABHD2^L33–E425 (DSF binding) ([2]; 30 min pre-incubation): did not affect

Cc1ccc(C2CCCCN2C(=O)N2CCCCC2)cc1 (stereo not drawn) [Compound 5]
IC50 [4]: 4200 nM
IC50 [1]: 940 nM
effect on melting temperature / thermal stability of ABHD2^L33-E425 (DSF), in words ([2]; 10 µM compound, 30 min pre-incubation): increased melting temperature
ΔTm shift for ABHD2^L33-425 determined by DSF [2]: 3.3 °C

C[C@]12CCC(=O)C=C1CC[C@@H]1[C@@H]2[C@@H](O)C[C@@]2(C)[C@H]1CC[C@]2(O)C(=O)CO [hydrocortisone]
effect on enzymatic activity of purified ABHD2^FL [4, 8]: did not alter
effect on enzymatic activity of purified ABHD2^L33–E425 [1, 7]: did not alter
effect on heat-induced denaturation of ABHD2^L33–E425 (DSF binding) ([2]; 30 min pre-incubation): did not affect

CC(C)CCC[C@@H](C)[C@H]1CC[C@H]2[C@@H]3CC=C4C[C@@H](O)CC[C@]4(C)[C@H]3CC[C@]12C [cholesterol]
effect on enzymatic activity of purified ABHD2^FL [4, 8]: did not alter
effect on enzymatic activity of purified ABHD2^L33–E425 [1, 7]: did not alter
effect on heat-induced denaturation of ABHD2^L33–E425 (DSF binding) ([2]; 30 min pre-incubation): did not affect

COC(=O)[C@]1(C)CC[C@]2(C)CC[C@]3(C)C4=CC=C5C(=CC(=O)C(O)=C5C)[C@]4(C)CC[C@@]3(C)[C@@H]2C1 [pristimerin]
effect on enzymatic activity of purified ABHD2^FL [4]: did not affect
effect on enzymatic activity of purified ABHD2^L33–E425 [1]: did not affect
progesterone-induced Ca2+ influx and hyperactivation [3]: inhibitors
progesterone-induced CatSper activation [3]: do not interfere

CCCCC/C=C\C/C=C\C/C=C\C/C=C\CCCC(=O)Oc1ccc2ccc(=O)oc2c1 [Compound 7-HCA, 7-hydroxycoumarinyl arachidonate]
Km ([4]; read-out: Km of substrate hydrolysis by ABHD2^FL): 59 µM
kcat of substrate hydrolysis by ABHD2^L33–E425 [1]: 2.8 pmol substrate/min/pmol enzyme
Km ([1]; read-out: Km of substrate hydrolysis by ABHD2^L33–E425): 0.28 µM

O=C(N1CCCCC1)N1CCCC[C@@H]1c1ccccc1 [(R)-2]
IC50 [4]: 240 nM
IC50 [1]: 220 nM
ΔTm shift for ABHD2^L33-425 determined by DSF [2]: 8.4 °C
compound-evoked changes in [Ca2+]i [5]: only minuscule changes
effect on progesterone-induced Ca2+ signal (amplitude and waveform) [5]: similar
effect on progesterone-induced hyperactivation [6]: not affected
effect on basal hyperactivation [6]: No statistically significant differences; also recorded: did not affect

O=C(N1CCCCC1)N1CCCC[C@@H]1Cc1ccccc1 [(R)-1]
IC50 [1]: 1200 nM
ΔTm shift for ABHD2^L33-425 determined by DSF [2]: 3.0 °C
compound-evoked changes in [Ca2+]i [5]: only minuscule changes
effect on progesterone-induced Ca2+ signal (amplitude and waveform) [5]: similar
effect on progesterone-induced hyperactivation [6]: not affected
effect on basal hyperactivation [6]: No statistically significant differences; also recorded: did not affect

O=C(N1CCCCC1)N1CCCC[C@H]1c1ccccc1 [(S)-2]
IC50 [4]: 5900 nM
IC50 [1]: 2100 nM
ΔTm shift for ABHD2^L33-425 determined by DSF [2]: 2.7 °C

17α-hydroxyprogesterone [reference compound]
effect on heat-induced denaturation of ABHD2^L33–E425 (DSF binding) ([2]; 30 min pre-incubation): no binding was observed

O=C(N1CCCCC1)N1CCCC[C@H]1Cc1ccccc1 [(S)-1]
IC50 [1]: 3000 nM
ΔTm shift for ABHD2^L33-425 determined by DSF [2]: 2.5 °C

C[C@]12CC[C@@H]3c4ccc(O)cc4CC[C@H]3[C@@H]1CC[C@@H]2O [17β-estradiol]
effect on enzymatic activity of purified ABHD2^FL [4, 8]: did not alter
effect on enzymatic activity of purified ABHD2^L33–E425 [1, 7]: did not alter

— paper PMC13429874, “ABHD2 activity is not required for the non-genomic action of progesterone on human sperm” (Human Reproduction (Oxford, England), 2026)
